# Source: US10646488B2 (Araxes Pharma LLC, priority 2016, dated 2020)
# Target: T1, KRAS G12C 1-169, his-tagged protein, GDP-loaded (Homo sapiens, UniProt P01116, G12C)
# T1 construct: KRAS G12C 1-169, his-tagged protein, GDP-loaded
# Assay: Covalent binding (% modification) to KRAS G12C by mass spectrometry; note: test concentration or dose not given here
# Settings: covalent binding to KRAS G12C after a ten minute incubation period
row,Structure (SMILES),Binding %
1,"C=CC(=O)N1[C@H](C)CN(c2nc(N3CC(N(C)C)C3)nc3c(F)c(-c4c(C)ccc5cn[nH]c45)c(Cl)cc23)C[C@@H]1C [Compound 27, 1-((2R,6S)-4-(6-chloro-2-(3-(dimethylamino)azetidin-1-yl)-8-fluoro-7-(6-methyl-1H-indazol-7-yl)quinazolin-4-yl)-2,6-dimethyl-piperazin-1-yl) prop-2-en-1-one]",++ (++ indicates binding activity from 50 to 90%)
2,"C=CC(=O)N1CCN(c2nc(OCCN(CC)CC)nc3c(F)c(-c4c(C)ccc5cn[nH]c45)c(Cl)cc23)[C@@H](C)C1 [Compound 28, 1-((3S)-4-(6-chloro-2-(2-(diethylamino)ethoxy)-8-fluoro-7-(6-methyl-1H-indazol-7-yl)quinazolin-4-yl)-3-methyl-piperazin-1-yl) prop-2-en-1-one]",+++ (+++ indicates binding activity greater than 90%)
3,"C=CC(=O)N1[C@H](C)CN(c2nc(OCCN(CC)CC)nc3c(F)c(-c4c(O)cccc4F)c(Cl)cc23)C[C@@H]1C [Compound 29, 1-((2R,6S)-4-(6-chloro-2-(2-(diethylamino)ethoxy)-8-fluoro-7-(2-fluoro-6-hydroxyphenyl)quinazolin-4-yl)-2,6-dimethyl-piperazin-1-yl) prop-2-en-1-one]",++ (++ indicates binding activity from 50 to 90%)
4,"C=CC(=O)N1[C@H](C)CN(c2nc(OCCN3CC(F)(F)C3)nc3c(F)c(-c4c(C)ccc5cn[nH]c45)c(Cl)cc23)C[C@@H]1C [Compound 30, 1-((2R,6S)-4-(6-chloro-2-(2-(3,3-difluoroazetidin-1-yl)ethoxy)-8-fluoro-7-(6-methyl-1H-indazol-7-yl)quinazolin-4-yl)-2,6-dimethyl-piperazin-1-yl) prop-2-en-1-one]",++ (++ indicates binding activity from 50 to 90%)
5,"C=CC(=O)N1C[C@@H](C)N(c2nc(N)nc3c(F)c(-c4c(C)ccc5cn[nH]c45)c(Cl)cc23)[C@@H](C)C1 [Compound 31, 1-((3S,5R)-4-(2-amino-6-chloro-8-fluoro-7-(6-methyl-1H-indazol-7-yl)quinazolin-4-yl)-3,5-dimethyl-piperazin-1-yl) prop-2-en-1-one]",++ (++ indicates binding activity from 50 to 90%)
6,"C=CC(=O)N1[C@H](C)CN(c2nc(OCCN3CC(F)(F)C3)nc3c(F)c(-c4c(O)cccc4F)c(Cl)cc23)C[C@@H]1C [Compound 32, 1-((2R,6S)-4-(6-chloro-2-(2-(3,3-difluoroazetidin-1-yl)ethoxy)-8-fluoro-7-(2-fluoro-6-hydroxyphenyl)quinazolin-4-yl)-2,6-dimethyl-piperazin-1-yl) prop-2-en-1-one]",+++ (+++ indicates binding activity greater than 90%)
7,"C=CC(=O)N1[C@H](C)CN(c2nc(NC3CCN(C4CC4)CC3)nc3c(F)c(-c4c(C)ccc5[nH]ncc45)c(Cl)cc23)C[C@@H]1C [Compound 33, 1-((2R,6S)-4-(6-chloro-2-((1-cyclopropyl-piperidin-4-yl)amino)-8-fluoro-7-(5-methyl-1H-indazol-4-yl)quinazolin-4-yl)-2,6-dimethyl-piperazin-1-yl) prop-2-en-1-one]",++ (++ indicates binding activity from 50 to 90%)
8,"C=CC(=O)N1CCN(c2nc(N3CC(O)C3)nc3c(F)c(-c4c(O)cccc4F)c(Cl)cc23)[C@@H](C)C1 [Compound 34, 1-((3S)-4-(6-chloro-8-fluoro-7-(2-fluoro-6-hydroxyphenyl)-2-(3-hydroxy-azetidin-1-yl)quinazolin-4-yl)-3-methyl-piperazin-1-yl) prop-2-en-1-one]",++ (++ indicates binding activity from 50 to 90%)
9,"C=CC(=O)N1[C@H](C)CN(c2nc(N3CC(O)C3)nc3c(F)c(-c4c(O)cccc4F)c(Cl)cc23)C[C@@H]1C [Compound 35, 1-((2R,6S)-4-(6-chloro-8-fluoro-7-(2-fluoro-6-hydroxyphenyl)-2-(3-hydroxy-azetidin-1-yl)quinazolin-4-yl)-2,6-dimethyl-piperazin-1-yl) prop-2-en-1-one]",++ (++ indicates binding activity from 50 to 90%)
10,"C=CC(=O)N1[C@H](C)CN(c2nc(OCCc3ccccn3)nc3c(F)c(-c4c(O)cccc4F)c(Cl)cc23)C[C@@H]1C [Compound 36, 1-((2R,6S)-4-(6-chloro-8-fluoro-7-(2-fluoro-6-hydroxyphenyl)-2-(2-(pyridin-2-yl)ethoxy)quinazolin-4-yl)-2,6-dimethyl-piperazin-1-yl) prop-2-en-1-one]",++ (++ indicates binding activity from 50 to 90%)
11,"C=CC(=O)N1[C@H](C)CN(c2nc(OC3CCN(C4CC4)CC3)nc3c(F)c(-c4c(C)ccc5[nH]ncc45)c(Cl)cc23)C[C@@H]1C [Compound 37, 1-((2S,6R)-4-(6-chloro-2-((1-cyclopropyl-piperidin-4-yl)oxy)-8-fluoro-7-(5-methyl-1H-indazol-4-yl)quinazolin-4-yl)-2,6-dimethyl-piperazin-1-yl) prop-2-en-1-one]",++ (++ indicates binding activity from 50 to 90%)
12,"C=CC(=O)N1C[C@H](C)N(c2nc(OCCN3CC(F)(F)C3)nc3c(F)c(-c4c(O)cccc4F)c(Cl)cc23)C[C@H]1C [Compound 38, 1-((2R,5 S)-4-(6-Chloro-2-(2-(3,3-Difluoroazetidin-1-Yl)Ethoxy)-8-Fluoro-7-(2-Fluoro-6-Hydroxyphenyl)Quinazolin-4-Yl)-2,5-Dimethylpiperazin-1-Yl)Prop-2-En-1-One]",+++ (+++ indicates binding activity greater than 90%)
13,"C=CC(=O)N1[C@H](C)CN(c2nc(N3CC(N(C)C)C3)nc3c(F)c(-c4c(C)ccc5[nH]ncc45)c(Cl)cc23)C[C@@H]1C [Compound 39, 1-((2R,6S)-4-(6-chloro-2-(3-(dimethylamino)azetidin-1-yl)-8-fluoro-7-(5-methyl-1H-indazol-4-yl)quinazolin-4-yl)-2,6-dimethyl-piperazin-1-yl) prop-2-en-1-one]",++ (++ indicates binding activity from 50 to 90%)
14,"C=CC(=O)N1C[C@@H](C)N(c2nc(N3CC(N(C)C)C3)nc3c(F)c(-c4c(C)ccc5[nH]ncc45)c(Cl)cc23)[C@@H](C)C1 [Compound 40, 1-((3S,5R)-4-(6-chloro-2-(3-(dimethylamino)azetidin-1-yl)-8-fluoro-7-(5-methyl-1H-indazol-4-yl)quinazolin-4-yl)-3,5-dimethyl-piperazin-1-yl) prop-2-en-1-one]",++ (++ indicates binding activity from 50 to 90%)
15,"C=CC(=O)N1[C@H](C)CN(c2nc(OCCN3CC(F)(F)C3)nc3c(F)c(-c4c(C)ccc5[nH]ncc45)c(Cl)cc23)C[C@@H]1C [Compound 41, 1-((2R,6S)-4-(6-chloro-2-(2-(3,3-difluoroazetidin-1-yl)ethoxy)-8-fluoro-7-(5-methyl-1H-indazol-4-yl)quinazolin-4-yl)-2,6-dimethyl-piperazin-1-yl) prop-2-en-1-one]",++ (++ indicates binding activity from 50 to 90%)
16,"C=CC(=O)N1C[C@@H](C)N(c2nc(NC3CCN(C4CC4)CC3)nc3c(F)c(-c4c(C)ccc5[nH]ncc45)c(Cl)cc23)[C@@H](C)C1 [Compound 42, 1-((3S,5R)-4-(6-chloro-2-((1-cyclopropyl-piperidin-4-yl)amino)-8-fluoro-7-(5-methyl-1H-indazol-4-yl)quinazolin-4-yl)-3,5-dimethyl-piperazin-1-yl) prop-2-en-1-one]",++ (++ indicates binding activity from 50 to 90%)
17,"C=CC(=O)N1C[C@@H](C)N(c2nc(NC3CCN(C4CC4)CC3)nc3c(F)c(-c4c(C)ccc5cn[nH]c45)c(Cl)cc23)[C@@H](C)C1 [Compound 43, 1-((3S,5R)-4-(6-chloro-2-((1-cyclopropyl-piperidin-4-yl)amino)-8-fluoro-7-(6-methyl-1H-indazol-7-yl)quinazolin-4-yl)-3,5-dimethyl-piperazin-1-yl) prop-2-en-1-one]",++ (++ indicates binding activity from 50 to 90%)
18,"C=CC(=O)N1C[C@@H](C)N(c2nc(N3CC(N(C)C)C3)nc3c(F)c(-c4c(C)ccc5cn[nH]c45)c(Cl)cc23)[C@@H](C)C1 [Compound 44, 1-((3S,5R)-4-(6-chloro-2-(3-(dimethylamino)azetidin-1-yl)-8-fluoro-7-(6-methyl-1H-indazol-7-yl)quinazolin-4-yl)-3,5-dimethyl-piperazin-1-yl) prop-2-en-1-one]",++ (++ indicates binding activity from 50 to 90%)
19,"C=CC(=O)N1C[C@@H](C)N(c2nc(OCCN3CC(F)(F)C3)nc3c(F)c(-c4c(C)ccc5[nH]ncc45)c(Cl)cc23)[C@@H](C)C1 [Compound 45, 1-((3S,5R)-4-(6-chloro-2-(2-(3,3-difluoroazetidin-1-yl)ethoxy)-8-fluoro-7-(5-methyl-1H-indazol-4-yl)quinazolin-4-yl)-3,5-dimethyl-piperazin-1-yl) prop-2-en-1-one]",++ (++ indicates binding activity from 50 to 90%)
20,"C=CC(=O)N1[C@H](C)CN(c2nc(OCCN(CC)CC)nc3c(F)c(-c4c(C)ccc5[nH]ncc45)c(Cl)cc23)C[C@@H]1C [Compound 46, 1-((2R,6S)-4-(6-Chloro-2-(2-(Diethylamino)Ethoxy)-8-Fluoro-7-(5-Methyl-1H-Indazol-4-Yl)Quinazolin-4-Yl)-2,6-Dimethylpiperazin-1-Yl)Prop-2-En-1-One]",++ (++ indicates binding activity from 50 to 90%)
21,"C=CC(=O)N1C[C@@H](C)N(c2nc(OCCN3CC(F)(F)C3)nc3c(F)c(-c4c(C)ccc5cn[nH]c45)c(Cl)cc23)[C@@H](C)C1 [Compound 47, 1-((3S,5R)-4-(6-chloro-2-(2-(3,3-difluoroazetidin-1-yl)ethoxy)-8-fluoro-7-(6-methyl-1H-indazol-7-yl)quinazolin-4-yl)-3,5-dimethyl-piperazin-1-yl) prop-2-en-1-one]",++ (++ indicates binding activity from 50 to 90%)
22,"C=CC(=O)N1C[C@H](C)N(c2nc(OCCN(CC)CC)nc3c(F)c(-c4c(O)cccc4F)c(Cl)cc23)C[C@H]1C [Compound 48, 1-((2R,5S)-4-(6-chloro-2-(2-(diethylamino)ethoxy)-8-fluoro-7-(2-fluoro-6-hydroxyphenyl)quinazolin-4-yl)-2,5-dimethyl-piperazin-1-yl) prop-2-en-1-one]",++ (++ indicates binding activity from 50 to 90%)
